Literature values as cited in US12616202B2, “Agricultural formulations, uses thereof and processes for preparation thereof” (priority 2018, dated 2026).

SMILES: COCC(=O)N(c1c(C)cccc1C)C(C)C(=O)OC (stereo not shown) [metalaxyl, Metalaxyl]
- water solubility: 8,400 parts per million
